target: T1, 3-oxo-5-alpha-steroid 4-dehydrogenase 1 (Homo sapiens, UniProt P18405); assay: Inhibition of human Steroid 5-alpha-reductase type I
T1 sequence (P18405 whole entry): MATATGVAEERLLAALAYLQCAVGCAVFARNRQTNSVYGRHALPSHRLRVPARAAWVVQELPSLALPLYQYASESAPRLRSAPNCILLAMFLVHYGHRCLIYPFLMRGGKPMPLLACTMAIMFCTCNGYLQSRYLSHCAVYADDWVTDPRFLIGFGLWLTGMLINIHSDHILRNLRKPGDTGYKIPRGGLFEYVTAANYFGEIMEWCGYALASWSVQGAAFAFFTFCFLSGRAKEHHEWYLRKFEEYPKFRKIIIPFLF

Row | Compound | IC50 [nM]
1 | O=C1C=CN2c3ccc(Cl)cc3CC[C@H]2C1 | 459
2 | C[C@@H]1CC2=CC(=O)CCN2c2ccc(Cl)cc21 | 14.4
3 | C[C@@H]1C[C@H]2CC(=O)C=CN2c2ccc(Cl)cc21 | 188
4 | C[C@H]1Cc2cc(Cl)ccc2N2C=CC(=O)C[C@H]12 | 9100

The remaining lines, values ahead:

Row | IC50 [nM] | Compound
5 | 49 | O=C1C=C2CCc3cc(Cl)ccc3N2CC1
6 | 0.5 | CC(C)CCCC(C)[C@H]1CCC2C3C(CC[C@@]21C)[C@@]1(C)CCC(=O)N(C)C1C[C@@H]3C (some centres not stated)
7 | 346 | C[C@H]1Cc2cc(Cl)ccc2N2CCC(=O)C=C12

— ChEMBL document CHEMBL1133393, “Synthesis of 8-chloro-benzo[c]quinolizin-3-ones as potent and selective inhibitors of human steroid 5alpha-reductase 1” (Bioorg Med Chem Lett, 2000)
